Measurements as given in US20170183318A1, “AMIDE COMPOUNDS, METHODS FOR PREPARATION, AND USE THEREOF AS AGENTS FOR THE TREATMENT AND PREVENTION OF DISEASES CAUSED BY RNA- AND/OR DNA-CONTAINING VIRUSES, AND CONCOMITANT DISEASES” (OBSCHESTVO S OGRANICHENNOI OTVETSTVENNOSTIYU …, priority 2014, published 2017).
Where two headings read alike, the source gives them in different places.

Tests used:
Staphylococcus aureus = assay: Murine model of staphylococcal pneumonia (bacterial growth from lung imprints); assay type: in vivo, outbred mice; details: 5 days before and 2 days after S. aureus infection, lung imprints on Columbia agar, control 82.5
Experimental: The efficiency of the compounds was evaluated in outbred mice (females) infected with Staphylococcus aureus (mouse-adapted strain). The administration of the compounds was started 5 days before infection, orally at doses of 15 and 30 mg/kg in a volume of 0.2 mL. On day 5, the mice were infected intranasally under brief ether anesthesia by administration of Staphylococcus aureus at a dose of 10^9 CFU in a volume of 0.05 mL. One hour after infection, the administration of the compounds to the mice was continued at the above-indicated doses for additional 2 days. The reference drug was ampicillin administered intravenously at a single dose of 20 mg/kg. The control was mice infected with Staphylococcus aureus intranasally and treated with PBS. The mice were sacrificed two days after, the breast was dissected, and lung imprints were made in Petri dishes with Columbia agar. After incubation for 24 hours at 30° C., the presence (or absence) of Staphylococcus aureus bacterial growth was fixed in comparison with the control. The intensity of bacterial growth was evaluated in scores and expressed in %.

[1] = system: human respiratory syncytial virus (strain A2); assay: Antiviral activity against RS virus in a murine model of suppressed immune system (lung edema); assay type: in vivo; details: Balb/c mice, cyclophosphan-suppressed, RS-virus pneumonia; 30 mg/kg once daily for 5 days; M ± SD, n = 5; scores from possible 4
Experimental: Antiviral activity of the chemical compounds against human respiratory syncytial virus (strain A2, an infectious titer of 5×10^6 TCID50/mL) was assessed in a Balb/c murine model of viral pneumonia. The virus was inoculated to animals intranasally in a volume of 50 μL under brief ether anesthesia. The immune response in animals to RS virus was suppressed by intraperitoneal administration of cyclophosphan at a dose of 100 mg/kg 5 days before infection. The studied compounds were administered according to the treatment regimen once daily at a dose of 30 mg/kg for 5 days, starting 24 hours after infection. The activity of the compounds was determined by a reduction in edema of the lung infected with respiratory syncytial virus, compared to the control, on day 5 after infection.

[2] = system: Coxsackie A2 virus (strain HCXV A2); assay: Antiviral activity against Coxsackie virus in vivo (mortality and life expectancy of infected mice); details: for inhibition in vivo at 30 mg/kg / mortality at 30 mg/kg: Mus musculus, po; for inhibition in vivo at 30 mg/kg: 168 h, read-out: Protective index (%); for mortality at 30 mg/kg: 360 h, read-out: Total mortality, %; for Average life expectancy (days), Compared with control: difference vs virus control; for Average life expectancy (days), Relative: mice infected with 10LD50 HCXV A2
Method in brief: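 White mice (6–7 g), 14–15 per group, infected i.m. with 10LD50 of HCXV A2; compounds 30 mg/kg orally once daily for 7 days from 24 h post-infection, saline placebo. Mortality and weight recorded daily over 15 days versus untreated infected group.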

human virus hRSV = assay: Antiviral activity against mouse-adapted RS virus (body weight; viral titer in lungs titrated in Hep-2 cells); assay type: in vivo, mice; details: compounds 30 mg/kg, Ribavirin 40 mg/kg, orally once daily for 5 days, n = 6
Experimental: Antiviral effectiveness of the chemical compounds against RSV in an experimental murine model in vivo was determined for human virus hRSV that was previously adapted to the growth in mouse lungs. The animals were infected with the virus at a dose of 0.5 log TCID50 intranasally under brief ether anesthesia in a volume of 0.05 ml/mouse. The studied compounds were administered orally once daily for 5 days according to the treatment regimen at a dose of 30 mg/kg. The first administration was made 24 hours after infection. Normal saline solution was administered to mice as placebo. Intact animals served as a negative control and were hold in a separate room under the same conditions as the experimental animals. Each experimental group comprised 12 animals.
The antiviral activity of the studied compounds was determined by the efficiency in the prevention of weight loss and by suppression of the reproduction of hRSV in the mouse lungs by measuring a viral titer in the experimental groups relative to the control on days 5 and 7 after infection.
In addition, the therapeutic action of the compounds of general formula I was determined by their ability to suppress the reproduction of hRSV in the mouse lungs on days 5 and 7 after infection. The viral titer was determined by the titration of a 10% lung suspension in Hep-2 cell culture. The result was registered 2 days after the incubation at 37° C. by TCID.

[3] = 30 mg/kg orally once daily for 7 days, vs virus control
[4] = 30 mg/kg orally once daily for 7 days

Row | Compound | Bacterial growth, in % (Staphylococcus aureus; 15 mg/kg orally) | Bacterial growth, in % (Staphylococcus aureus; 30 mg/kg orally) | Degree of lung edema on day 5 after infection, score [1] | inhibition in vivo at 30 mg/kg [2, 3] | mortality at 30 mg/kg [2] | Average life expectancy (days), Compared with control [2, 4] | Average life expectancy (days), Relative [2, 4] | inhibition in vivo at 30 mg/kg [2] | Body weight of the mice on day 5 after infection with hRSV (M ± SD) (human virus hRSV; day 5) | Body weight of the mice on day 7 after infection with hRSV (M ± SD) (human virus hRSV; day 7)
1 | O=C(O)CCCC(=O)NCCc1nc2ccccc2s1 [Compound 275] | 35% | 40% | 1.80 ± 0.20 score | 40% | 42.9% | +9.5 days | 22.4 days |  |  | 
2 | CC(C)N(CCc1cnc[nH]1)C(=O)CCCC(=O)O [Compound 141] | 55% | 40% | 0.55 ± 0.21 score |  |  |  |  |  |  | 
3 | O=C(O)CCCC(=O)NCCC1CCCN1 (stereo not shown) [Compound 2] | 50 (sporadic colonies (up to 100)) | 55% | 1.95 ± 0.32 score | 55.6% | 28.6% | +20.1 days | 32.3 days |  |  | 
4 | O=C(O)CCCC(=O)NCCCc1cccs1 [Compound 34] | 25 (sporadic colonies (up to 10)) | 50 (sporadic colonies (up to 100)) | 1.75 ± 0.4 score | 22.2% | 50% | +8.3 days | 20.5 days |  |  | 
5 | Cc1csc(CCNC(=O)CCCC(=O)O)n1 [Compound 197] | 45% | 60% | 1.15 ± 0.23 score |  | 42.9% | +11.2 days | 22.2 days | 33.3% |  | 
6 | CC(Cc1cnc[nH]1)NC(=O)CCCC(=O)O (stereo not shown) [Compound 115] | 55% | 25 (sporadic colonies (up to 10)) | 1.60 ± 0.5 score |  |  |  |  |  |  | 
7 | O=C(O)CCCC(=O)NCCCc1c[nH]cn1 [Compound 118] | 55% | 50 (sporadic colonies (up to 100)) | 1.85 ± 0.45 score |  |  |  |  |  |  | 
8 | O=C(O)CCCC(=O)NC(Cc1c[nH]cn1)C(=O)O (stereo not shown) [Compound 251] | 55% | 20% | 0.90 ± 0.21 score |  | 42.9% | +10.0 days | 22.2 days | 33.3% |  | 
9 | O=C(O)CCCC(=O)NCCC1CCCCN1 (stereo not shown) [Compound 6] | 45% | 55% | 0.90 ± 0.22 score |  |  |  |  |  | 16.47 ± 0.26 | 17.02 ± 0.29
